The source made the active and inactive calls. The rule behind the calls is not given here.
Tests used:
[1] = molecular target: T1, Nitric oxide synthase, inducible (Mus musculus) (UniProt P29477); assay: Inhibition of iNOS dimer formation in LPS-induced mouse RAW264.7 cells at 0.5 to 2 uM preincubated for 1 hrs followed by LPS-stimulation and measured after 24 hrs by Westernblot analysis; conditions: dose 0.5-2 µM, time 25.0 hrs
T1 sequence (whole entry): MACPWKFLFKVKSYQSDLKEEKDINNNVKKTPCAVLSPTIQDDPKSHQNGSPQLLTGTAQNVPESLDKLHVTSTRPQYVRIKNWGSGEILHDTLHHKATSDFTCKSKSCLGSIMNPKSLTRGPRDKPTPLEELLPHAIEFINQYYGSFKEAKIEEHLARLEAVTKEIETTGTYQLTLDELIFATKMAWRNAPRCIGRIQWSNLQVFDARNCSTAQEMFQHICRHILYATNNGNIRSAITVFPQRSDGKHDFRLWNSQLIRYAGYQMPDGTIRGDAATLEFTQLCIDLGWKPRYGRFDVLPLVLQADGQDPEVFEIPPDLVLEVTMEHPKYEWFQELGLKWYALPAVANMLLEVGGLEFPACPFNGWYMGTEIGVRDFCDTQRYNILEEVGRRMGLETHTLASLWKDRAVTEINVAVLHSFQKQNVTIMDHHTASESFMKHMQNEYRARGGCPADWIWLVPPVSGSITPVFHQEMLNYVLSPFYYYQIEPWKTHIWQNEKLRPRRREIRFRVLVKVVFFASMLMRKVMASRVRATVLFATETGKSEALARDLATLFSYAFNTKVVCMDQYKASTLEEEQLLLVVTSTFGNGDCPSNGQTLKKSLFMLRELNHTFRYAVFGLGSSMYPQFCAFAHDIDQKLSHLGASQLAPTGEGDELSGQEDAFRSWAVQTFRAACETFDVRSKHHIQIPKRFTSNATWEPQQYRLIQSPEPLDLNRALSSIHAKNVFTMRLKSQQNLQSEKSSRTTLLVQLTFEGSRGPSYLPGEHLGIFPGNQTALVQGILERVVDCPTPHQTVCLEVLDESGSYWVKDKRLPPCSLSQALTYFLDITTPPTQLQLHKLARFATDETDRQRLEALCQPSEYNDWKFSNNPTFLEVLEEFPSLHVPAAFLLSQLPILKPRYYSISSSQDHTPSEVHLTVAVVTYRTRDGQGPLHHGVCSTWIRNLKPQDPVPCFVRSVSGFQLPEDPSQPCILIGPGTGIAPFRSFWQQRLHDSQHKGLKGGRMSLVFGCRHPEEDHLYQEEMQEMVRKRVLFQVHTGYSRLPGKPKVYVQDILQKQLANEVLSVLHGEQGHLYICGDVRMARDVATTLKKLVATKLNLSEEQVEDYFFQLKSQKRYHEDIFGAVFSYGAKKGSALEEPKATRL

[2] = Metabolic stability in human hepatocytes assessed as clearance incubated up to 120 mins measured per million cells by LC-MS/MS analysis; format: ADME, cell-based, Hepatocyte; conditions: read-out: CLH
Rattus norvegicus [3] = assay: Antiinflammatory activity in complete freund's adjuvant-induced male Sprague-Dawley rat model of arthritis assessed as improved cartilage destruction at 80 mg/kg, IG after 4 weeks by H and E staining based histopathological analysis; format: functional, organism-based
Cytochrome P450 2C19 = Cytochrome P450 2C19 (Homo sapiens, UniProt P33261); assay: Inhibition of CYP2C19 in human liver microsomes using Mephenytoin as substrate measured after 20 mins by LC-MS/MS analysis; format: ADME
Sequence of Cytochrome P450 2C19 (P33261 whole entry): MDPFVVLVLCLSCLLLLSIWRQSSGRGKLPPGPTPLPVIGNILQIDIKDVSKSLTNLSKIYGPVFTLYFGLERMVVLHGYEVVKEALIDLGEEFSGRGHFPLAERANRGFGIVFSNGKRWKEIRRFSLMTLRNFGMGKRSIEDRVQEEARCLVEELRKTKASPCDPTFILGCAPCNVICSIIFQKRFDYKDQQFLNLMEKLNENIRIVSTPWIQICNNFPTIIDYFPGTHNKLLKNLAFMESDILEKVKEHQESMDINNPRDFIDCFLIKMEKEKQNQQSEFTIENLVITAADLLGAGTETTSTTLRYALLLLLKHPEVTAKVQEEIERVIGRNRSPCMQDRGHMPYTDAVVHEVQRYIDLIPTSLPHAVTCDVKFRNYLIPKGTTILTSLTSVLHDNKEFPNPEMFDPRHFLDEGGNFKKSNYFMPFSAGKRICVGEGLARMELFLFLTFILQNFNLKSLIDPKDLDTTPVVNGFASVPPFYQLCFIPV

Cytochrome P450 2D6 = Cytochrome P450 2D6 (Homo sapiens, UniProt P10635); assay: Inhibition of CYP2D6 in human liver microsomes using Dextromethorphan as substrate measured after 20 mins by LC-MS/MS analysis; format: ADME
Sequence of Cytochrome P450 2D6 (P10635 whole entry): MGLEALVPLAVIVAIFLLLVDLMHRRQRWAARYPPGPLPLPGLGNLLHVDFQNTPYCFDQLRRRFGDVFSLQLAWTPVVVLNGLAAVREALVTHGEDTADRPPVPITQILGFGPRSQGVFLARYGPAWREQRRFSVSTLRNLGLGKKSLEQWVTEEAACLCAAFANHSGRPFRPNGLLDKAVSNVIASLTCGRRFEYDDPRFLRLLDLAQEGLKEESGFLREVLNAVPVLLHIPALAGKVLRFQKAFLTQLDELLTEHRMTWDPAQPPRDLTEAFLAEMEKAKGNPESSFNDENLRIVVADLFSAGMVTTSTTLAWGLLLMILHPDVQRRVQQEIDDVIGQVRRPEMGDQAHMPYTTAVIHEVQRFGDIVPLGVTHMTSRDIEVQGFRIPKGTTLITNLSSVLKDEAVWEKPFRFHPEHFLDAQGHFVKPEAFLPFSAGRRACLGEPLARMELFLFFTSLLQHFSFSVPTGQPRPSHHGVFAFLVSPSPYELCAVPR

[4] = Plasma clearance in Sprague-Dawley rat at 1 mg/kg, iv measured after 0.08 to 24 hrs hrs by LC/MS/MS analysis; format: ADME, organism-based; conditions: time 0.08-24 hrs
Rattus norvegicus [5] = assay: Antiinflammatory activity in complete freund's adjuvant-induced IG dosed male Sprague-Dawley rat model of arthritis assessed as decrease in IL-1beta level in serum after 4 weeks by ELISA; format: functional, organism-based; conditions: dose 40-80 mg/kg
[6] = Subacute toxicity in rat assessed as anorexia at 100 to 500 mg/kg, IG administered every other day for 14 days and measured every 2 days; format: organism-based; conditions: in vivo, po, 336 h, dose 100-500 mg/kg, time 14 day
[7] = Acute toxicity in IG dosed rat assessed as maximum tolerated dose; format: organism-based; conditions: in vivo, po
[8] = Metabolic stability in human hepatocytes assessed as parent compound remaining after 120 mins by LC-MS/MS analysis; format: ADME, cell-based, Hepatocyte; conditions: read-out: Stabilty
[9] = Metabolic stability in rat hepatocytes assessed as intrinsic clearance incubated up to 120 mins measured per million cells by LC-MS/MS analysis; format: ADME, cell-based, Hepatocyte; conditions: read-out: CLH
RAW264.7 [10] = assay: Inhibition of LPS-induced NO release in mouse RAW264.7 cells preincubated for 1 hrs followed by LPS stimulation and measured after 24 hrs by Griess reagent based assay; format: functional, cell-based
[11] = Acute toxicity in rat assessed as anorexia at 2000 mg/kg, IG administered as single dose; format: organism-based; conditions: in vivo, po
[12] = AUC (0 to infinity) in Sprague-Dawley rat at 10 mg/kg, po measured by LC-MS analysis; format: ADME, organism-based; parameters: time infinity, route oral, dose 10 mg/kg; conditions: in vivo
Rattus norvegicus [13] = assay: Antiinflammatory activity in complete freund's adjuvant-induced male Sprague-Dawley rat model of arthritis assessed as reduction in synovial hyperplasia at 40 to 80 mg/kg, IG after 2 weeks by Safranin O staining based histopathological analysis; format: functional, organism-based; conditions: dose 40-80 mg/kg
L02 = assay: Cytotoxicity against human L02 cells assessed as cell viability by MTT assay; format: cell-based
RAW264.7 [14] = assay: Inhibition of LPS-induced iNOS protein expression in mouse RAW264.7 cells at 0.5 to 2 uM preincubated for 1 hrs followed by LPS-stimulation and measured after 24 hrs by Western blot analysis; format: functional, cell-based; conditions: dose 0.5-2 µM, time 25.0 hrs
[15] = Half life in Sprague-Dawley rat at 1 mg/kg, iv measured after 0.08 to 24 hrs by LC-MS/MS analysis; format: ADME, organism-based; conditions: in vivo, time 0.08-24 hrs

COc1cc(/C=C/c2nc(NCc3ccc(C)cc3)c3sccc3n2)cc(OC)c1OC
inhibition [1]: Active
hepatocyte CLint [2]: 2.1 µL/min/1e6 cells
Activity (Rattus norvegicus [3]): Active
IC50 (Cytochrome P450 2C19): 7.76 µM
IC50 (Cytochrome P450 2D6): > 50 µM
clearance [4]: 42.9 mL/min/kg
Activity (Rattus norvegicus [5]): Dose-Dependent Effect
Activity [6]: Non-Toxic
MTD [7]: 2000 mg/kg
remaining at 2 h [8]: 77.5%
hepatocyte CLint [9]: 12.6 µL/min/1e6 cells
IC50 (RAW264.7 [10]): 1.86 µM
Activity [11]: Non-Toxic
AUC [12]: 1152 ng·h/mL
Activity (Rattus norvegicus [13]): Active
IC50 (L02): 2930 µM
inhibition (RAW264.7 [14]): inactive
half-life [15]: 6.21 h

Reference: ChEMBL document CHEMBL4813945, “Discovery and development of novel pyrimidine and pyrazolo/thieno-fused pyrimidine derivatives as potent and orally active inducible nitric oxide synthase dimerization inhibitor with efficacy for arthritis” (Eur J Med Chem, 2021)
